Assay results as given in patent US7208628B2, “Compositions and methods for the treatment of hepatitis C virus infection” (Kansas State University Research Foundation, priority 2002, dated 2007).
pIC50: −log10 of the molar value.

Target: binding of HCV-E2 to CD81 on Molt4 T cells (Hepacivirus hominis (Hepatitis C virus), UniProt P27958)
Assay: HCV-E2/CD81 binding assay on Molt4 T cells, detection with anti-E2 mAb 6F6 and flow cytometry
Design: species or system human
Conditions: for ability to inhibit the HCV-E2 binding to CD81, relative activity in words: structure-activity comparison of linker, side chain and ester against the valine benzyl ester I45DC AL-2-140
Description: Development of a Unique HCV-E2/CD81 Binding Assay. […] The binding of HCV-E2 to CD81 has been reported by several groups (see, e.g. Allander, T., et al., “Hepatitis C virus envelope protein E2 binds to CD81 of tamarins” Virology 277:358–367, 2000). Often those studies involved interactions of purified recombinant proteins. We sought to confirm published findings and to test the ability of HCV-E2 to bind to CD81 expressed on living T cells. Various concentrations of recombinant HCV-E2 (Ala 384 to Lys 715 of the HCV polyprotein produced in CHO cells; Austral Biologicals) was incubated with Molt4 T cells and binding of HCV-E2 to the cells was detected with the anti-E2 monoclonal antibody 6F6 (Austral Biologicals) followed by flow cytometry (FIG. 1). HCV-E2 binding to Molt4 T cells is concentration dependent and easily detectable at concentrations as low as 0.3 μg/mL. This binding assay differs from the assay published by Wünschmann in that the published assay used whole virus and not recombinant […] peptide. (Wünschmann, et al, “Characterization of Hepatitis C Virus (HCV) and HCV E2 Interactions with CD81 and the Low-Density Lipoprotein Receptor” J. Virology 74:10055–10062, 2000).
Effect of I45DCs on HCV-E2 binding to CD81 on T cells. […] Binding was measured by using the novel and sensitive method of the present invention for the detection of binding between the HCV envelope protein E2 and its cellular receptor CD81 on living human T cells. This experimental approach was employed in the evaluation of a series of newly synthesized I45DCs.
HCV-E2 was pre-incubated with or without […] of the indicated compound for 30 minutes at 37° C. prior to addition of HCV-E2 to Molt4 cells and detection as described above. […] The approximate EC50 of 19 was determined by conducting the same type of experiment in the presence of a 1:2 titration of 19 from […] (FIG. 5).

Sequence of binding of HCV-E2 to CD81 on Molt4 T cells (P27958 384-715): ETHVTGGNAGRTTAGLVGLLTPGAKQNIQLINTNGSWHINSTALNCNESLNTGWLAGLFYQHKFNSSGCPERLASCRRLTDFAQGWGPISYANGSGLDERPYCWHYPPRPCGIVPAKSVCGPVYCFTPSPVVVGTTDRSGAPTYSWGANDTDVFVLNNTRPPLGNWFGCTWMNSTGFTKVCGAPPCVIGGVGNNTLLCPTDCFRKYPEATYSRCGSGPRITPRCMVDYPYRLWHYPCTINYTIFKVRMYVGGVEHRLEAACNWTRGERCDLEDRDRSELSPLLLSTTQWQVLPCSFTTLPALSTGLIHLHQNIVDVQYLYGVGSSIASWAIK
Sequence of binding of HCV-E2 to CD81 on Molt4 T cells (P60033 whole entry, further chain): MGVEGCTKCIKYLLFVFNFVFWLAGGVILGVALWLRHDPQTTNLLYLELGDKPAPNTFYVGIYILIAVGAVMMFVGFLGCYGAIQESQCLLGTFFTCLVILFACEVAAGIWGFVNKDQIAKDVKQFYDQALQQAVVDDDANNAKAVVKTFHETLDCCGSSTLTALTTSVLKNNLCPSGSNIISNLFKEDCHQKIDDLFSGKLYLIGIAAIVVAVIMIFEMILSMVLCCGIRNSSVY

CCN(CCN(CC)C(=O)c1nc[nH]c1C(=O)N[C@H](C(=O)OCc1ccccc1)C(C)C)C(=O)c1nc[nH]c1C(=O)N[C@H](C(=O)OCc1ccccc1)C(C)C [Compound 19]
pIC50 (CD81 expressed on human T cells, 1:2 titration of compound, FIG. 5, read-out: approximate IC50 value for blocking binding of HCV-E2 to CD81): ~4.35
bioactivity in the HCV-E2 binding assay (HCV-E2 pre-incubated with 500 mM compound for 30 minutes at 37° C. before addition to Molt4 cells): bioactivity in the sub-millimolar range
ability to inhibit the HCV-E2 binding to CD81, relative activity in words: most active compound to date
ability to inhibit the HCV-E2 binding to CD81, relative activity in words (listed as AL-2-140): most active
